Reference: ChEMBL document CHEMBL5096223, “Design, synthesis, and biological evaluation of 2-arylamino-4-(piperidin-4-yloxy)pyrimidines as potent EGFRT790M/L858R inhibitors to treat non-small cell lung cancer” (Bioorg Med Chem, 2022)
pIC50: −log10 of the molar value. Calls of active or inactive are those of the source. The calls are words filed in the database; no cut-off is given here.

What was measured:
[1] = molecular target: Epidermal growth factor receptor (Homo sapiens, UniProt P00533); assay: Inhibition of N-terminal GST-tagged human recombinant wild type EGFR (695 to end residues) expressed in baculovirus-infected Sf9 cells using poly (4:1 Glu,Tyr) peptide as substrate incubated for 60 mins in presence of ATP by ADP-Glo kinase assay
Chain of Epidermal growth factor receptor (Homo sapiens, UniProt P00533) (P00533 whole entry): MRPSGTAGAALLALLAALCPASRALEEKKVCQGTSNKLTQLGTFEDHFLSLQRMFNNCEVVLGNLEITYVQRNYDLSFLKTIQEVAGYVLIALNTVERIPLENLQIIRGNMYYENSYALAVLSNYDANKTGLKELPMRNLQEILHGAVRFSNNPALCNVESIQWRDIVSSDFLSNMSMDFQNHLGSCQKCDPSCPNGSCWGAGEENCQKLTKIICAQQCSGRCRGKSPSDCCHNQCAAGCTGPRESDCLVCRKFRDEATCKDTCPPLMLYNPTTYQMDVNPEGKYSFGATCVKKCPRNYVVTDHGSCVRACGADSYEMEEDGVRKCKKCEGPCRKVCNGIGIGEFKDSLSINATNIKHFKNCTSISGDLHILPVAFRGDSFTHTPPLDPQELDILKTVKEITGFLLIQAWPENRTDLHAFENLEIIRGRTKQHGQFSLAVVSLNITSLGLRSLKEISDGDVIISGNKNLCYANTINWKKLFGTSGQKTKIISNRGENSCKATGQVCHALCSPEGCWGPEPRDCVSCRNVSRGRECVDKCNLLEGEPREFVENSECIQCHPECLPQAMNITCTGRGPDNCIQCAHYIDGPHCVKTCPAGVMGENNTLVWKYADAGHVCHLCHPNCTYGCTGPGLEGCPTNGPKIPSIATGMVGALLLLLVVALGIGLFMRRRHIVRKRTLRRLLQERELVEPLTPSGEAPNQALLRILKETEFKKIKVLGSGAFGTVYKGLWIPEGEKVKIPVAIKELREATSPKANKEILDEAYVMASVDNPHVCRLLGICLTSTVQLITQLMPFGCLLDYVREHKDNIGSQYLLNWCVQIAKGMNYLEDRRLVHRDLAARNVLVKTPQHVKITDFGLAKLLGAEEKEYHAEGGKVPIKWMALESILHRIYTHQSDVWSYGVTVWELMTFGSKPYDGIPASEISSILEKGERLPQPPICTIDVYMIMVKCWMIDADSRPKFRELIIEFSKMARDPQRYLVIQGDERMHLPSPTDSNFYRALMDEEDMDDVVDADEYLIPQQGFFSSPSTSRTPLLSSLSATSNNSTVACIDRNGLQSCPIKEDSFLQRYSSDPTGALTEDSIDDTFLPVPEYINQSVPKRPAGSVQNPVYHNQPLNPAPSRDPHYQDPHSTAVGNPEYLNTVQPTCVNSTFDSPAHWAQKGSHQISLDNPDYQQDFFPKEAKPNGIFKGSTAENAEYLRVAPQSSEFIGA

[2] = Cytotoxicity against human A-431 cells harboring wild type EGFR assessed as reduction in cell viability incubated for 72 hrs by MTT assay; format: toxicity, cell-based
NCI-H1975 [3] = assay: Antiproliferative activity against human NCI-H1975 cells harboring EGFR T790M/L858R mutant assessed as reduction in cell growth incubated for 72 hrs by MTT assay; format: functional, cell-based; conditions: NCI-H1975, 72 h
[4] = Cytotoxicity against human HBE cells assessed as reduction in cell viability incubated for 72 hrs by MTT assay; format: toxicity, cell-based, Epithelial cell
Homo sapiens = organism: Homo sapiens; assay: Selectivity index, ratio of IC50 for N-terminal GST-tagged human recombinant wild type EGFR (695 to end residues) expressed in baculovirus-infected Sf9 cells to IC50 for N-terminal GST-tagged human recombinant EGFR T790M/L858R mutant (695 to end residues) expressed in baculovirus-infected Sf9 cells; format: functional
NCI-H358 = assay: Antiproliferative activity against human NCI-H358 cells harboring KRAS G12C mutant assessed as reduction in cell growth incubated for 72 hrs by MTT assay; format: functional, cell-based; conditions: NCI-H358, 72 h
SW-620 = assay: Antiproliferative activity against human SW620 cells harboring KRAS G12V mutant assessed as reduction in cell growth incubated for 72 hrs by MTT assay; format: functional, cell-based; conditions: SW-620, 72 h
[5] = molecular target: Epidermal growth factor receptor (Homo sapiens, UniProt P00533, L858R/T790M); assay: Inhibition of N-terminal GST-tagged human recombinant EGFR T790M/L858R mutant (695 to end residues) expressed in baculovirus-infected Sf9 cells using poly (4:1 Glu,Tyr) peptide as substrate incubated for 60 mins in presence of ATP by ADP-Glo kinase assay
Chain of Epidermal growth factor receptor (Homo sapiens, UniProt P00533, L858R/T790M) (P00533 25-1210 T790M/L858R limits assumed): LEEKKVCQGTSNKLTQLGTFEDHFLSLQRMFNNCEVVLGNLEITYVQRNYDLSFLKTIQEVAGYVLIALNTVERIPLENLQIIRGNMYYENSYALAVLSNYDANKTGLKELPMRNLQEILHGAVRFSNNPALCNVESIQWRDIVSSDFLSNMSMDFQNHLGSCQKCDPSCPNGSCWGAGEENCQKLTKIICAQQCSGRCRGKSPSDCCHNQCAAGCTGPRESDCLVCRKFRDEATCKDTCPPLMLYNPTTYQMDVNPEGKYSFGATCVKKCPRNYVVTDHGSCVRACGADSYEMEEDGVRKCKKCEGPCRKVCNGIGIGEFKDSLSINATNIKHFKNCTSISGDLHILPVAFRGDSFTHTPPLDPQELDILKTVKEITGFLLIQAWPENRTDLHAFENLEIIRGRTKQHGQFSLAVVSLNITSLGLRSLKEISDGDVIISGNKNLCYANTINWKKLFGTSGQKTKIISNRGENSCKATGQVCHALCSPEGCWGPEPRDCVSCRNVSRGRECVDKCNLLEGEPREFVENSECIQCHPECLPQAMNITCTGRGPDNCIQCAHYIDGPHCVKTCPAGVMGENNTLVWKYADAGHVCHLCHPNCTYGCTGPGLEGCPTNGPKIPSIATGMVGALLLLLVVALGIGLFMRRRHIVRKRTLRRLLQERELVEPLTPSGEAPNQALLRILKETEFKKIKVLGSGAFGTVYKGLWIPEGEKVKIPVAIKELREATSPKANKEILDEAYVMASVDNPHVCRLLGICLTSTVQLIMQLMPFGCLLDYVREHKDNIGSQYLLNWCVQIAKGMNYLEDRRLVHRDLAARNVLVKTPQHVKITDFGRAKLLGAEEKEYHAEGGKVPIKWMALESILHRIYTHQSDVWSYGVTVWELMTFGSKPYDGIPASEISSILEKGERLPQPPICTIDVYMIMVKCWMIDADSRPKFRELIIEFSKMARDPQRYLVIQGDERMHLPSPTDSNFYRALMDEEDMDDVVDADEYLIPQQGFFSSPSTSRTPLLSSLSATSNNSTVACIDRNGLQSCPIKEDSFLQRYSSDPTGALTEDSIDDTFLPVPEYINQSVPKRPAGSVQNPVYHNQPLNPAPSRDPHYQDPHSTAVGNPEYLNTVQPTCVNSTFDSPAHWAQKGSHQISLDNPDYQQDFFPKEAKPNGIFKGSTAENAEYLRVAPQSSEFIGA

ASPC1 = assay: Antiproliferative activity against human ASPC1 cells harboring KRAS G12D mutant assessed as reduction in cell growth incubated for 72 hrs by MTT assay; format: functional, cell-based; conditions: ASPC1, 72 h
[6] = Cytotoxicity against human L02 cells assessed as reduction in cell viability incubated for 72 hrs by MTT assay; format: toxicity, cell-based
[7] = Selectivity index, ratio of IC50 for cytotoxicity against human HBE cells to IC50 for cytotoxicity against human NCI-H1975 cells harboring EGFR T790M/L858R mutant; format: toxicity, cell-based; conditions: read-out: Ratio IC50
NCI-H1975 [8] = assay: Induction of morphological changes in human NCI-H1975 cells incubated for 48 hrs by AO/EB staining based fluorescence microscopic analysis; format: functional, cell-based; conditions: dose 1-10 µM, DDE = dose-dependent effect
NCI-H1975 [9] = assay: Inhibition of cell migration in human NCI-H1975 cells incubated for 24 to 48 hrs by scratch wound healing assay; format: functional, cell-based; conditions: dose 0.05-0.5 µM, time 24-48 hrs, DDE = dose-dependent effect
NCI-H1975 [10] = assay: Induction of apoptosis in human NCI-H1975 cells assessed as increase in number of nonviable apoptotic cells at 5 to 10 uM incubated for 48 hrs by AO/EB staining based fluorescence microscopic analysis; format: functional, cell-based; conditions: dose 5-10 µM
[11] = Selectivity index, ratio of IC50 for cytotoxicity against human L02 cells to IC50 for cytotoxicity against human NCI-H1975 cells harboring EGFR T790M/L858R mutant; format: toxicity, cell-based; conditions: read-out: Ratio IC50
NCI-H1975 [12] = assay: Induction of apoptosis in human NCI-H1975 cells assessed as chromatin shrinkage and accumulation in the nucleus at 1 to 10 uM incubated for 48 hrs by DAPI staining based fluorescence microscopic analysis; format: functional, cell-based; conditions: dose 1-10 µM
NCI-H1975 [13] = assay: Induction of apoptosis in human NCI-H1975 cells assessed as nuclear fragmentation by measuring breakdown of nucleus into small membrane blebs with compacted DNA at 1 to 10 uM incubated for 48 hrs by DAPI staining based fluorescence microscopic analysis; format: functional, cell-based; conditions: dose 1-10 µM
NCI-H1975 [14] = assay: Inhibition of cell migration in human NCI-H1975 cells at 0.05 to 0.5 uM by scratch wound healing assay; format: functional, cell-based; conditions: dose 0.05-0.5 µM, time 24-48 hrs, TDE = time-dependent effect
NCI-H1975 [15] = assay: Induction of apoptosis in human NCI-H1975 cells assessed as increase in died cells with few cells containing intact DNA at 10 uM incubated for 48 hrs by DAPI staining based fluorescence microscopic analysis; format: functional, cell-based

SMILES | pIC50 [1] | IC50 at 72 h [2] [µM] | pIC50 (NCI-H1975 [3]) | IC50 at 72 h [4] [µM] | Ratio IC50 (Homo sapiens) | pIC50 (NCI-H358) | pIC50 (SW-620) | pIC50 [5] | pIC50 (ASPC1) | IC50 at 72 h [6] [µM] | selectivity ratio [7] | Activity (NCI-H1975 [8]) | inhibition (NCI-H1975 [9]) | Activity (NCI-H1975 [10]) | selectivity ratio [11] | Activity (NCI-H1975 [12]) | Activity (NCI-H1975 [13]) | inhibition (NCI-H1975 [14]) | Activity (NCI-H1975 [15])
C=CC(=O)N1CCC(Oc2nc(Nc3ccc(N4CCN(C(C)=O)CC4)cc3OC)nc3ccsc23)CC1 | 7.22 | 3.92 | 5.43 | 18.9 | 3 | 4.84 | 5.06 | 7.69 | 6.32 | 10.6 |  |  |  |  |  |  |  |  | 
C=CC(=O)N1CCC(Oc2nc(Nc3ccc(N4CCN(C)CC4)cc3OC)nc3[nH]ccc23)CC1 | 7.43 | 2.71 | 5.36 | > 20 | 2.99 | 5.01 | 5.01 | 7.91 | 5.15 | 18 |  |  |  |  |  |  |  |  | 
C=CC(=O)N1CCC(Oc2nc(Nc3ccc(N4CCN(C)CC4)cc3)nc3ccsc23)CC1 | 6.44 | 4.18 | 6.21 | 9.05 | 73.3 | 4.72 | 5.13 | 8.31 | 5.27 | 8.45 | 13 | Dde | Dde | Active | 13 | Active | Active | Tde | Active
C=CC(=O)N1CCC(Oc2nc(Nc3ccc(N4CCOCC4)cc3OC)nc3ccsc23)CC1 | 6.61 | 15.2 | 5.23 | > 20 | 25.5 | < 4.70 | 5.06 | 8.01 | 6.29 | 18.2 |  |  |  |  |  |  |  |  | 
C=CC(=O)N1CCC(Oc2nc(Nc3ccc(N(C)CCN(C)C)cc3OC)nc3[nH]ccc23)CC1 | 7.23 | 16.7 | 5.38 | > 20 | 7.7 | 5.25 | 5.11 | 8.11 | 5.29 | 19 |  |  |  |  |  |  |  |  | 
C=CC(=O)N1CCC(Oc2nc(Nc3ccc(N4CCOCC4)cc3)nc3ccsc23)CC1 | 6.71 | 3.89 | 5.24 | 16.7 | 30.2 | 4.78 | 5.32 | 8.18 | 5.56 | 16.2 |  |  |  |  |  |  |  |  | 
C=CC(=O)N1CCC(Oc2nc(Nc3ccc(N4CCN(C)CC4)c(F)c3)nc3[nH]ccc23)CC1 | 6.92 | 1.29 | 6.05 | 3.02 | 8.87 | 5.44 | 5.80 | 7.87 | 6.40 | 1.89 |  |  |  |  |  |  |  |  | 
C=CC(=O)Nc1cc(Nc2nccc(-c3cn(C)c4ccccc34)n2)c(OC)cc1N(C)CCN(C)C [OSIMERTINIB] |  | 1.32 |  |  |  |  |  |  |  |  |  |  |  |  |  |  |  |  | 
CCC(=O)N1CCC(Oc2nc(Nc3ccc(N4CCN(C)CC4)cc3)nc3ccsc23)CC1 | 6.57 |  | 4.58 |  |  |  |  | 6.45 |  |  |  |  |  |  |  |  |  |  | 
C=CC(=O)N1CCC(Oc2nc(Nc3ccc(N4CCN(C)CC4)c(F)c3)nc3ccsc23)CC1 |  | 1.38 | 5.72 | 4.05 |  | 5.20 | 5.45 |  | < 4.70 | 1.4 |  |  |  |  |  |  |  |  | 
C=CC(=O)N1CCC(Oc2nc(Nc3ccc(CN4CCC(CO)CC4)cc3)ncc2Cl)CC1 | 6.75 | 1.84 | 5.97 | 5.86 | 14.6 | 4.79 | 5.70 | 7.91 | 5.66 | 2.12 |  |  |  |  |  |  |  |  | 
C=CC(=O)N1CCC(Oc2nc(Nc3ccc(N4CCN(CCO)CC4)cc3)ncc2Cl)CC1 | 6.91 | 2.01 | 5.82 | 16.1 | 2.94 | 5.33 | 6.52 | 7.38 | 5.56 | 4.47 |  |  |  |  |  |  |  |  | 
C=CC(=O)N1CCC(Oc2nc(Nc3cnn(C)c3)nc3ccsc23)CC1 | 6.71 | 4.77 | 5.64 | > 20 | 1.45 | 4.75 | 5.21 | 6.87 | 6.15 | 8.92 |  |  |  |  |  |  |  |  | 
C=CC(=O)N1CCC(Oc2nc(Nc3cnn(C)c3)nc3[nH]ccc23)CC1 | 6.41 | 3.99 | 6.03 | > 20 | 1.9 | 5.51 | 5.63 | 6.69 | 5.94 | 10.2 |  |  |  |  |  |  |  |  | 
C=CC(=O)N1CCC(Oc2nc(Nc3ccc(N4CCN(C)CC4)c(F)c3)ncc2Cl)CC1 |  | 3.26 | 5.68 | 8.91 |  | 5.82 | 5.79 |  | 5.41 | 5.38 |  |  |  |  |  |  |  |  | 
C=CC(=O)N1CCC(Oc2nc(Nc3ccc(N4CCN(C)CC4)cc3OC)nc3ccsc23)CC1 | 6.61 | 2.07 | 5.78 | 18.6 | 17.4 | 5.13 | 5.13 | 7.85 | 6.19 | 1.97 |  |  |  |  |  |  |  |  | 
C=CC(=O)N1CCC(Oc2nc(Nc3ccn(C)n3)nc3ccsc23)CC1 | 6.65 | > 20 | 4.78 | > 20 | 1.78 | 4.70 | < 4.70 | 6.90 | > 6.70 | 16.7 |  |  |  |  |  |  |  |  | 
C=CC(=O)N1CCC(Oc2nc(Nc3ccc(N4CCN(C)CC4)cc3)ncc2Cl)CC1 |  | 1.45 | 5.77 | 15 |  | 5.40 | 5.33 |  | 5.23 | 8.77 |  |  |  |  |  |  |  |  | 
C=CC(=O)N1CCC(Oc2nc(Nc3ccc(N4CCN(C)CC4)cc3)nc3[nH]ccc23)CC1 | 7.44 | 1.65 | 5.76 | 7.94 | 6.35 | 5.37 | 5.61 | 8.25 | 5.92 | 6.25 |  |  |  |  |  |  |  |  | 
C=CC(=O)N1CCC(Oc2nc(Nc3ccc(N4CCN(C(C)=O)CC4)cc3OC)nc3[nH]ccc23)CC1 | 6.88 | 3.51 | 5.42 | 12.9 | 4.23 | 5.45 | 5.24 | 7.50 | 5.31 | 16.1 |  |  |  |  |  |  |  |  | 
